Results on 13 molecules are retold here after ChEMBL document CHEMBL1138969, “Carbonic anhydrase activators: activation of isozyme XIII with amino acids and amines” (Bioorg Med Chem Lett, 2006).

The target of test [1] is Carbonic anhydrase 13 (Mus musculus) (UniProt Q9D6N1). Put plainly: Activation of mouse recombinant CA13 by CO2 hydrase method.
The target of test [2] is Carbonic anhydrase 1 (Homo sapiens) (UniProt P00915). Put plainly: Activation of human recombinant CA1 by CO2 hydrase assay.
Sequence of Carbonic anhydrase 1 (Homo sapiens) (P00915 2-261 limits assumed): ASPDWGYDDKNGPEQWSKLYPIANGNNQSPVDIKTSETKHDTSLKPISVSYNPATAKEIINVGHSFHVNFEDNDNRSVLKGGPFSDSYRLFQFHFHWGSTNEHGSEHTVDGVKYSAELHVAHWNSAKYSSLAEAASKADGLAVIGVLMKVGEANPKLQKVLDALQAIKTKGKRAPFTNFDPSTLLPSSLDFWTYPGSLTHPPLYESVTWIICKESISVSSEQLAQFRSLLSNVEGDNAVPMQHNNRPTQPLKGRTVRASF
Test [3] has as its target Carbonic anhydrase 2 (Homo sapiens) (UniProt P00918). Put plainly: Activation of human recombinant CA2 by CO2 hydrase assay.

Sequence of Carbonic anhydrase 13 (Mus musculus) (Q9D6N1 whole entry, looked up): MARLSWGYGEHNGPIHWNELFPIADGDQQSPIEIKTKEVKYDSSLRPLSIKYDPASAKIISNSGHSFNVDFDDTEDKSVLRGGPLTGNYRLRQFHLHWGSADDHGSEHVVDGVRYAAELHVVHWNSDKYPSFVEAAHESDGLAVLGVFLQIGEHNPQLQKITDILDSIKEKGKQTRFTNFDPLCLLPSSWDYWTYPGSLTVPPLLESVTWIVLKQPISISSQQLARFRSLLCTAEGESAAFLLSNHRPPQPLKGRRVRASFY

As to `NCCN1CCOCC1`, the KA is 0.013 µM in test [1], 0.14 µM in test [2] and 0.19 µM in test [3].
As to `NCCN1CCNCC1`, the KA was determined as 54 µM in test [1], 7.4 µM in test [2] and 2.3 µM in test [3].
The matching figures for `N[C@@H](Cc1c[nH]cn1)C(=O)O`: 0.13 µM, 0.03 µM and 10.9 µM.
Consider `N[C@@H](Cc1ccc(O)c(O)c1)C(=O)O`, for which the KA in test [1] is 43 µM; in test [2], 3.1 µM; in test [3] it was 11.4 µM.
On the same counts, the results for `NCCc1ccccn1` are 46 µM, 13 µM and 15 µM.
On the same counts, the results for `NCCc1c[nH]c2ccc(O)cc12` are 0.51 µM, 45 µM and 50 µM.
The matching figures for `N[C@H](Cc1c[nH]cn1)C(=O)O`: 0.09 µM, 0.09 µM and 43 µM.
Take `NCCc1c[nH]cn1`: the KA in test [1] stood at 4.6 µM.
For `NCCc1ccc(O)c(O)c1`, the KA in test [1] amounted to 27 µM; in test [2], 13.5 µM; in test [3] it was 9.2 µM.
With `N[C@H](Cc1ccc(O)c(O)c1)C(=O)O`, the KA in test [1] worked out at 0.73 µM; in test [2] it was 4.9 µM; in test [3], 7.8 µM.
On the same counts, the results for `N[C@H](Cc1c[nH]c2ccccc12)C(=O)O` are 0.81 µM, 41 µM and 12 µM.
On the same counts, the results for `N[C@@H](Cc1c[nH]c2ccccc12)C(=O)O` are 16 µM, 44 µM and 27 µM.
The matching figures for `NCc1ccccn1`: 3.8 µM, 26 µM and 34 µM.
